According to PubChem BioAssay (NCI):
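Tested at 5 concentrations; 48 h exposure; 96-well plates; endpoints linearly interpolated, else capped at highest concentration. Here, GI50 denotes the concentration required for 50% inhibition of growth. TGI is the concentration that stops growth completely.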 Where a SMILES comes first, the peptide text is derived from it. The star is where a group is joined. Cbz = O=C(OCc1ccccc1)*

What was measured:
Experiment in all cases: inhibition of tumour cell growth, NCI panel, 48 h
TK-10 renal = tested on: TK-10 renal
UO-31 renal = tested on: UO-31 renal
U251 CNS = tested on: U251 CNS
OVCAR-3 ovarian = tested on: OVCAR-3 ovarian
SF-539 CNS = tested on: SF-539 CNS
786-0 renal = tested on: 786-0 renal
SF-268 CNS = tested on: SF-268 CNS
OVCAR-5 ovarian = tested on: OVCAR-5 ovarian
MDA-MB-435 = tested on: MDA-MB-435
BT-549 breast = tested on: BT-549 breast
MDA-N = tested on: MDA-N

Row | Compound | TGI (TK-10 renal) | TGI (UO-31 renal) | TGI (U251 CNS) | TGI (OVCAR-3 ovarian) | TGI (SF-539 CNS) | TGI (786-0 renal) | TGI (SF-268 CNS) | TGI (OVCAR-5 ovarian) | TGI (MDA-MB-435) | TGI (BT-549 breast) | TGI (MDA-N) | GI50 (OVCAR-5 ovarian) | GI50 (U251 CNS) | GI50 (MDA-MB-435) | GI50 (OVCAR-3 ovarian) | GI50 (BT-549 breast) | GI50 (SF-268 CNS) | GI50 (TK-10 renal) | GI50 (UO-31 renal) | GI50 (SF-539 CNS)
1 | Cc1c2ccccc2c(=O)n2c(-c3ccccn3)cccc12 | > 100 µM | > 100 µM | > 100 µM | > 100 µM | > 100 µM | > 100 µM | > 100 µM | – | – | – | – | – | – | – | – | – | – | – | – | –
2 | O=C1CC(Nc2ccccc2)c2c(Cl)sc(Cl)c21 (configuration not stated) | 3.26 µM | 2.57 µM | 3.32 µM | – | 2.24 µM | 0.784 µM | – | 6.23 µM | 3.17 µM | 4.36 µM | 3.33 µM | – | – | – | – | – | – | – | – | –
3 | COc1cc2c(c3nc4ccccc4nc13)-c1ccc(SC)c(=O)cc1[C@@H](NC(C)=O)CC2 | > 100 µM | > 100 µM | > 100 µM | > 100 µM | 0.0603 µM | > 100 µM | > 100 µM | > 100 µM | 0.0693 µM | – | – | – | – | – | – | – | – | – | – | –
4 | CN(C)N1C(=C(C#N)C#N)C(c2ccccc2)CC1C#N (configuration not stated) | > 100 µM | > 100 µM | > 100 µM | – | > 100 µM | > 100 µM | > 100 µM | > 100 µM | > 100 µM | – | > 100 µM | – | – | – | – | – | – | – | – | –
5 | COc1ccc(-c2nc(-c3nc4cc(Cl)c(Cl)cc4[nH]3)c3ccccn23)cc1 | – | – | > 100 µM | > 100 µM | – | – | 6.83 µM | > 100 µM | > 100 µM | 9.48 µM | – | > 100 µM | 3.05 µM | 5.77 µM | 3.18 µM | 3.08 µM | 2.59 µM | – | – | –
6 | CC(C)C(Sc1nc(-c2ccccc2)c(-c2ccccc2)[nH]1)C(=O)N/N=C/c1ccc(Cl)cc1 (configuration not stated) | > 100 µM | 47.8 µM | 39.5 µM | 35.5 µM | 36.4 µM | 40.8 µM | 57.6 µM | 52.4 µM | – | – | – | – | – | – | – | – | – | – | – | –
7 | C[N+](C)(N)Cc1nc(-c2ccc(Cl)cc2)no1 | > 100 µM | – | > 100 µM | > 100 µM | > 100 µM | > 100 µM | – | > 100 µM | > 100 µM | > 100 µM | > 100 µM | – | – | – | – | – | – | – | – | –
8 | O=C1c2cccnc2S(=O)(=O)N1c1ccc(Br)cc1 | > 100 µM | > 100 µM | > 100 µM | > 100 µM | – | > 100 µM | > 100 µM | > 100 µM | > 100 µM | > 100 µM | > 100 µM | – | – | – | – | – | – | – | – | –
9 | CN(C)c1ccc(-c2c(C#N)c(-c3ccccc3)n(NS(=O)(=O)c3ccccc3)c(=O)c2C#N)cc1 | > 100 µM | – | > 100 µM | – | > 100 µM | > 100 µM | > 100 µM | > 100 µM | > 100 µM | > 100 µM | > 100 µM | – | – | – | – | – | – | – | – | –
10 | CCOC(=O)CCC(NC(=O)C(CC(=O)OC)NC(=O)OCc1ccccc1)C(=O)NC(CC(=O)OC)C(=O)NC(CCC(=O)OCC)C(=O)NC(CC(=O)OC)C(=O)NC(CCC(=O)OCC)C(=O)NC(CC(=O)OCC)C(=O)OCC (configuration not stated) (Cbz-D(OMe)E(OEt)D(OMe)E(OEt)D(OMe)E(OEt)D(OEt)-OEt; configuration not given here) | > 100 µM | > 100 µM | > 100 µM | > 100 µM | – | > 100 µM | – | > 100 µM | > 100 µM | > 100 µM | > 100 µM | – | – | – | – | – | – | – | – | –
11 | Cc1c2ccccc2c(/C=N/NC(=O)CSCC(=O)N/N=C/c2c3ccccc3c(C)c3ccccc23)c2ccccc12 | > 95.4 µM | > 100 µM | > 57.6 µM | > 80.9 µM | > 56.9 µM | > 52.8 µM | > 75.3 µM | > 100 µM | > 100 µM | > 90.1 µM | – | – | – | – | – | – | – | – | – | –
12 | CCN1CC2=C(OC(N)=C(C#N)C2c2ccc(Cl)cc2)/C(=C/c2ccc(Cl)cc2)C1 (configuration not stated) | > 100 µM | > 100 µM | 47.2 µM | > 100 µM | – | 29.8 µM | 49.6 µM | > 100 µM | > 100 µM | > 100 µM | > 100 µM | – | – | – | – | – | – | – | – | –
13 | Cc1cccc(C)c1NC(=S)N/C=C(\C#N)C(N)=O | > 100 µM | > 100 µM | > 100 µM | > 100 µM | > 100 µM | > 100 µM | > 100 µM | > 100 µM | > 100 µM | – | > 100 µM | – | – | – | – | – | – | – | – | –
14 | CCOC(=O)c1nc(SC)sc1NC(=O)c1ccc(OC)cc1 | 54.7 µM | > 100 µM | 55.4 µM | > 100 µM | 34.9 µM | > 100 µM | > 100 µM | > 100 µM | > 100 µM | – | > 100 µM | – | – | – | – | – | – | – | – | –
15 | COc1ccccc1C1C(C#N)=C(N)SC(N)=C1C#N | > 100 µM | > 100 µM | > 100 µM | > 100 µM | > 100 µM | – | > 100 µM | > 100 µM | > 100 µM | > 100 µM | – | > 100 µM | 54 µM | 52.8 µM | 62.4 µM | 55.6 µM | 48.9 µM | > 100 µM | 82.5 µM | 90.7 µM
16 | CN(C(=O)Cc1cc(Cl)c(Cl)cc1NC(=O)CCCN)[C@H]1CCCC[C@@H]1N1CCCC1 | > 100 µM | > 100 µM | 35.3 µM | > 100 µM | – | 36.2 µM | 30.6 µM | > 100 µM | 31.6 µM | > 100 µM | 30.7 µM | – | – | – | – | – | – | – | – | –
17 | CCOC(=O)CCCN | > 100 µM | > 100 µM | > 100 µM | > 100 µM | – | > 100 µM | > 100 µM | > 100 µM | > 100 µM | > 100 µM | > 100 µM | – | – | – | – | – | – | – | – | –
18 | CCCSc1ccc2[nH]c(N3C(=O)/C(=C/c4ccc(O)c(OC)c4)N=C3c3ccccc3)cc2c1 | – | > 100 µM | – | > 100 µM | 49 µM | > 100 µM | > 100 µM | 44.3 µM | > 100 µM | 46.4 µM | 5.26 µM | – | – | – | – | – | – | – | – | –
19 | CC(C)NC1CCCCC2c3ccccc3C12O (configuration not stated) | > 100 µM | > 100 µM | > 100 µM | – | – | > 100 µM | > 100 µM | – | – | – | – | – | – | – | – | – | – | – | – | –
20 | CN1CCN(c2n[nH]c(=O)c3c2nnn3Cc2ccccc2)CC1 | > 100 µM | > 100 µM | > 100 µM | > 100 µM | – | > 100 µM | > 100 µM | – | > 100 µM | > 100 µM | 40.1 µM | – | – | – | – | – | – | – | – | –
21 | C/C(=N/NC(=S)N1CCCCCC1)c1cccc(/C(C)=N\NC(=S)N2CCCCCC2)n1 | 3.29 µM | 3.39 µM | 4.77 µM | 2.59 µM | 3.15 µM | 2.63 µM | 9.46 µM | 5.26 µM | 3.36 µM | – | 4.9 µM | – | – | – | – | – | – | – | – | –
